From patent US9532520B2, “Drought tolerant plants” (NUNHEMS B.V., priority 2009, dated 2017)

Tested on: tomato seedlings (Solanum lycopersicum cv. Moneymaker)
Assay: Root growth assay on ½MS media containing ABA
Format: in vivo
Conditions: wild type tomato; 0, 5, 10 or 40 μM ABA; root length seven days after transfer, relative to medium without ABA
Protocol: Seeds were sterilized as described above and sown in water containing […]. After radicle protrusion ten seeds of each line were placed on ½MS media containing either 0, 5, 10, or 40 μM ABA. The roots were measured and the plates were placed in vertical position and grown under conditions described above. Seven days after transfer the length of the root was measured again and root growth was calculated as a percentage of root growth compared to ½MS media without ABA (100%). Experiments were carried out three times and mean values plus SD are shown. Student's t-tests were performed to test for significance (p<0.05).

CC1=CC(=O)CC(C)(C)[C@@]1(O)/C=C/C(C)=C\C(=O)O [ABA, abscisic acid]
root growth after germination: reduced
